Data published in patent publication US20230172936A1, “VCP/p97 INHIBITOR FOR THE TREATMENT OF CANCER” (Cleave Therapeutics, Inc., priority 2020, published 2023).
Where “and” joins values, the source holds several entries; their conditions need not be identical. Equal entries are not always repeated. Where two headings read alike, the source gives them in different places.

What was measured:
MV-411 cell line = assay: Cytotoxicity by Cell Titer Glo; type: cell-based; conditions: Homo sapiens, MV4-11, 144 h, 6 days
Description: (§1) Acute myelogenous leukemia (AML) is the most common acute leukemia in adults. A hematologic cancer, the disease is highly heterogeneous, with multiple subtypes. About 30% of AML cases harbor a FLT3/ITD mutation making the disease highly proliferative and more aggressive with a high risk of relapse.
(§2) Triplicate wells with media only and duplicate wells of vehicle (0.2% DMSO) were used as negative controls. […] To measure proliferation, untreated cells at days 0 and 6 were evaluated via Cell Titer Glo.
(§3) Protocol: • 1. AML cells were thawed and resuspended in enriched media composed of StemSpan™ Serum-Free Expansion Media (SFEM), 2% heat-inactivated FBS, StemSpan™ CC110 and recombinant human IL-3. • 2. 20,000 cells/well in 100 μL volume were plated on study day 0. • 3. […] Cells were incubated in the presence of drug for 6 days. • 5. On day 6, plates were removed from the incubator and equilibrated to room temperature for 20 minutes. 100 μL/well Cell Titer Glo was added to each well and incubated for 10 minutes before plate reading. • 6. Luminescence was recorded using Tecan Infinite M Plex plate reader.

[1] = system: human A549 lung adenocarcinoma xenograft tumors; assay: Tumor growth of A549 xenograft tumors; type: in vivo, mice; conditions: 18 day period
Source text: (§4) Group 1 received PO 4-days on, 3-days off doses (QD4/3 off) of vehicle.

MOML-13 cell line = assay: Combination treatments, Cell Titer-Glo viability after 72 hours; type: cell-based, human; conditions: MOML-13
Description: The additional therapeutic agents for this example were azacitidine (Cayman Chemical Cat No. 11164), decitabine (Sigma Cat No. A3656) and venetoclax (InvivoChem Cat. No. V0001).
Cell Culture: Three human acute myeloid leukemia tumor cell lines were used in this study: HL60, MV4;11 and MOLM-13. HL60 and MV4;11 were grown in IMDM base media with 20% and 10% FBS, respectively. MOLM-13 was grown in RPMI 1640 base media with 20% FBS. All culture media contained 2 mM glutamine, 100 units/mL sodium penicillin G, […] gentamicin, and 100 μg/mL streptomycin sulfate. The tumor cells were cultured in tissue culture flasks in a humidified incubator at 37° C., in an atmosphere of 5% C02 and 95% air. Assay: Tumor cells were seeded in duplicate in a volume of 100 μL/well of media into 96-well micro-culture plates at initial densities low enough to allow for several population doublings (typically three to five) during the indicated incubation period. After a 24 hour incubation, test agents were added to each well. After 72 hours of culture with test articles, cell viability was determined using the Cell Titer-Glo® (Promega G7571) assay. Briefly, Cell Titer-Glo® (Promega G7571) reagents were equilibrated at room temperature for 30 minutes; 100 μL per well was added at endpoint (72 hours). Plates were gently shaken for two minutes and then incubated at room temperature for ten minutes prior to reading luminescence on the BMG Clariostar Plus microplate reader.
An IC50 ratio for each combination was calculated from the ratio of the combination IC50 as compared to the applicable no fixed agent (vehicle) control.

[2] = system: 30 passage 1 (P1) models of human acute myeloid leukemia; assay: Ex-vivo cytotoxicity by Cell Titer Glo, all models; type: cell-based; conditions: 144 h, single agent, 6 days, read-out: IC50s in these models
Description: as §1, §2, §3

[3] = Human plasma pharmacokinetics (Phase I dose escalation)
Source text: BID dosing may be also tested depending on initial PK assessments. Participants will be evaluated regularly for safety assessments including physical examinations and laboratory testing. Bone marrow aspirates and/or biopsies will be performed at regular intervals, including for assessment of tumor response as per 2017 European LeukemiaNet (ELN) response criteria for AML or 2006 revised International Working Group (IWG) response criteria for MDS. Peripheral blood samples will be collected in Cycle 1 for intensive PK testing and PD biomarker assessments. Additional intensive PK testing will be collected for any participants undergoing intra-patient dose escalation.
A cycle consists of 28 days and the first cycle will comprise the DLT observation period.
Following the protocol of Example 7, additional patients were treated in the dose escalation study.

[4] = Source text: as §4

For `Cc1cc2c(C(N)=O)cccc2n1-c1nc2c(c(NCc3ccccc3)n1)CCCN2` [Compound 1, 1-(4-(Benzylamino)-5,6,7,8-tetrahydropyrido[2,3-d]pyrimidin-2-yl)-2-methyl-1H-indole-4-carboxamide], the IC50 (MV-411 cell line) was 262 nM, the TGI ([1]; 100 mg/kg QD4/3 off) was 61% and the “tumor growth inhibition (TGI)” value ([1]; 150 mg/kg BIW, PO) was 20%. The TGI ([1]; 225 mg/kg once weekly (1/W)) was 31%, the IC50 (MOML-13 cell line; Homo sapiens, 72 h, no fixed agent (vehicle), read-out: IC50) was 216 nM and the “Combination: Monotherapy IC50 Ratio” value (MOML-13 cell line; fixed agent Azacitidine - 105 nM) was 0.39. For the same compound, the “Combination: Monotherapy IC50 Ratio” value (MOML-13 cell line; fixed agent Azacitidine - 850 nM) was 0.39, the “Combination: Monotherapy IC50 Ratio” value (MOML-13 cell line; fixed agent Decitabine - 2.5 nM) was 0.56 and the “Combination: Monotherapy IC50 Ratio” value (MOML-13 cell line; fixed agent Decitabine - 8.5 nM) was 0.30. The “Combination: Monotherapy IC50 Ratio” value (MOML-13 cell line; fixed agent Venetoclax+ Azacitidine - 6.5 nM) was 0.71, the “Combination: Monotherapy IC50 Ratio” value (MOML-13 cell line; fixed agent Venetoclax+ Azacitidine - 20 nM) was 0.52 and the IC50 [2] was 200 to 800 nM. For the same compound, the AR ([3]; 25 mg QD, Day 4) was 0.914, the accumulation ([3]; 25 mg QD, between days 1 and 4) was “No accumulation” and the “exposure with concomitant proton pump inhibitors (PPi)” value ([3]; 100 mg QD, two of three subjects) was “lower exposure”. For the same compound, the “exposure level increases between the doses” value ([3]; 25, 50, 100 and 175 mg QD, 9 patients) was “proportional and linear”, the “plasma exposure compared with CB-5083” value ([3]; Compound 1 25 mg QD vs CB-5083 40 mg QD) was “significantly higher plasma exposure” and the “exposures compared with CB-5083” value ([3]; Compound 1 25 mg QD vs CB-5083 at greater than 200 mg, FIG. 7) was “greater than dosing CB-5083 at greater than 200 mg”. The “exposures compared with CB-5083” value ([3]; dose escalation 25-175 mg QD, FIG. 8) was “greater than dosing CB-5083”, the Tmax ([3]; human, in vivo, 25 mg) was 2 h and the tmax ([3]; human, in vivo, 25 mg) was 2 h. The AUC(0-inf) ([3]; human, in vivo, 25 mg, AUC0-inf) was 1.03 µM·h and 425 ng·h/mL, the AUC(0-t) ([3]; human, in vivo, 25 mg, AUC0-t) was 0.88 µM·h and 364 ng·h/mL and the Cmax ([3]; human, in vivo, 25 mg, Cmax) was 198 nM and 81.7 ng/mL. For the same compound, the half-life ([3]; human, in vivo, 25 mg, half-life) was 3 to 4 h, the half-life ([3]; human, in vivo, 25 mg, t1/2) was 2.61 h and the drug-related deaths ([4]; 100 mg/kg QD4/3 off) was “a single drug-related death”. For the same compound, the “tolerability of dosing regimen” value ([4]; 100 mg/kg QD4/3 off) was “generally tolerated”, the “mean body weight loss” value ([4]; 100 mg/kg QD4/3 off, day 2) was −7.0% and the deaths ([4]; 150 mg/kg BIW cohort) was “No deaths”. The body weight loss ([4]; 150 mg/kg BIW, day 2) was −1.5%, the body weight loss ([4]; 150 mg/kg BIW, day 3) was −3.9% and the drug related deaths ([4]; 225 mg/kg 1/W cohort) was “A single drug related death”. It also gave a body weight loss ([4]; 225 mg/kg weekly, day 4) of −8.1%.
